In ChEMBL document CHEMBL4507317, “Data for DCP probe BAY-899” (2021):

Key:
[1] = system: Tyrosine-protein kinase ABL1 (Homo sapiens), P00519 [F317I]; settings: Compound concentration 1000.0 nM
[2] = system: Tyrosine-protein kinase ABL1 (Homo sapiens), P00519 [T315I]; settings: Compound concentration 1000.0 nM
[3] = molecular target: Tyrosine-protein kinase ABL1 (Homo sapiens) (UniProt P00519); settings: Compound concentration 1000.0 nM
[4] = molecular target: NUAK family SNF1-like kinase 1 (Homo sapiens) (UniProt O60285); settings: Compound concentration 1000.0 nM
[5] = molecular target: Serine/threonine-protein kinase BRSK2 (Homo sapiens) (UniProt Q8IWQ3); settings: Compound concentration 1000.0 nM
[6] = molecular target: Calcium/calmodulin-dependent protein kinase type II subunit beta (Homo sapiens) (UniProt Q13554); settings: Compound concentration 1000.0 nM
[7] = molecular target: Dual specificity protein kinase CLK2 (Homo sapiens) (UniProt P49760); settings: Compound concentration 1000.0 nM
Sequence of Dual specificity protein kinase CLK2 (Homo sapiens) (P49760 whole entry, looked up): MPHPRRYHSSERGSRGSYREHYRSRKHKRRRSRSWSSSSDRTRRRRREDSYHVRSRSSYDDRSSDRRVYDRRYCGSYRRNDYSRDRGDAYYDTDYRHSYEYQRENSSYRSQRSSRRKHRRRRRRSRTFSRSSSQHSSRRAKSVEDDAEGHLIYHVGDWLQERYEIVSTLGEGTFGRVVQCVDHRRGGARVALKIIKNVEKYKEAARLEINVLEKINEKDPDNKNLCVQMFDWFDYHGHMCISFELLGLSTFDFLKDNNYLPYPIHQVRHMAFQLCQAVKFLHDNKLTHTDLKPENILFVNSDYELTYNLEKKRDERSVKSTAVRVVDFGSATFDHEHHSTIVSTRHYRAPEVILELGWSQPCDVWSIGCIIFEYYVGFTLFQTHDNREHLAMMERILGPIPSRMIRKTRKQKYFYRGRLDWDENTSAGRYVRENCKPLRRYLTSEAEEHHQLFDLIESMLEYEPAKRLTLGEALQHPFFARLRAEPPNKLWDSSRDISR

[8] = molecular target: Casein kinase II subunit alpha' (Homo sapiens) (UniProt P19784); settings: Compound concentration 1000.0 nM
[9] = molecular target: Death-associated protein kinase 1 (Homo sapiens) (UniProt P53355); settings: Compound concentration 1000.0 nM
Sequence of Death-associated protein kinase 1 (Homo sapiens) (P53355 whole entry, looked up): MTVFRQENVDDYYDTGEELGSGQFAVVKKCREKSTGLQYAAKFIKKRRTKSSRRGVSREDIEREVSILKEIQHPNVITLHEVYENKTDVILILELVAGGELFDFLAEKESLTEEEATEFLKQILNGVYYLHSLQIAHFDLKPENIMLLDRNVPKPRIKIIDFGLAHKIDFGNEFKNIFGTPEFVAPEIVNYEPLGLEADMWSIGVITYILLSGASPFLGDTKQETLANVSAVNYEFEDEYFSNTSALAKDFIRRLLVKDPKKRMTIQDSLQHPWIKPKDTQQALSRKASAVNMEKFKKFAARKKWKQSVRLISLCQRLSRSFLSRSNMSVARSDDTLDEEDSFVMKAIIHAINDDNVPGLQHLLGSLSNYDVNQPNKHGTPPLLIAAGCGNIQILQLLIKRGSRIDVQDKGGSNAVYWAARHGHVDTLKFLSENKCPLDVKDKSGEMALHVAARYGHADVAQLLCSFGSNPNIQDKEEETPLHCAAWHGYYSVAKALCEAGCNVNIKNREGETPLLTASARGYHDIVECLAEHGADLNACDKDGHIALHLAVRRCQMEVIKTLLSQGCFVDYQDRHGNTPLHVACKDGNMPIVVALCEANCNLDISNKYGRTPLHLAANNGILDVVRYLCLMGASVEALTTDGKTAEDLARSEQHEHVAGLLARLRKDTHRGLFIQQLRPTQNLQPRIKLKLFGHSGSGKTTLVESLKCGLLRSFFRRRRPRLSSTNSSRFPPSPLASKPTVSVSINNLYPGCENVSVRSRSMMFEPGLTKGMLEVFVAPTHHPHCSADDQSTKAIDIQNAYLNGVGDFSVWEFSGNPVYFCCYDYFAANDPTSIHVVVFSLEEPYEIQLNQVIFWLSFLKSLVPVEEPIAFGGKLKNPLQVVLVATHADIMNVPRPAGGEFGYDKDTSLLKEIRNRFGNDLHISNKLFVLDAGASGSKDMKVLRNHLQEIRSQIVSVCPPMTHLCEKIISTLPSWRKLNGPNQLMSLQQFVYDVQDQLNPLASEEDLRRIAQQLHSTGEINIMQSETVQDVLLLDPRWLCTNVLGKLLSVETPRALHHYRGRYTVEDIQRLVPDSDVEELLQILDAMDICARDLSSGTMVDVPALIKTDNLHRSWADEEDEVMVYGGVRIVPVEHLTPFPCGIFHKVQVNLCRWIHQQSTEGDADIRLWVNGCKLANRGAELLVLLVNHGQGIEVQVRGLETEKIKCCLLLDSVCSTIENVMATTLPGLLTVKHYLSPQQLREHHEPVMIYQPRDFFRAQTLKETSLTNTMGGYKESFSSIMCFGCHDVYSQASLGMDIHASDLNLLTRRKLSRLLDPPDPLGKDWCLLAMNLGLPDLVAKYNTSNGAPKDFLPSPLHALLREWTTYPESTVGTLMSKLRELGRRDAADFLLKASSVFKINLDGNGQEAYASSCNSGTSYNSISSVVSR

[10] = molecular target: Serine/threonine-protein kinase DCLK2 (Homo sapiens) (UniProt Q8N568); settings: Compound concentration 1000.0 nM
[11] = molecular target: Epithelial discoidin domain-containing receptor 1 (Homo sapiens) (UniProt Q08345); settings: Compound concentration 1000.0 nM
[12] = molecular target: Dual specificity tyrosine-phosphorylation-regulated kinase 1A (Homo sapiens) (UniProt Q13627); settings: Compound concentration 1000.0 nM
[13] = molecular target: Ephrin type-B receptor 1 (Homo sapiens) (UniProt P54762); settings: Compound concentration 1000.0 nM
[14] = molecular target: Receptor tyrosine-protein kinase erbB-3 (Homo sapiens) (UniProt P21860); settings: Compound concentration 1000.0 nM
[15] = molecular target: Mitogen-activated protein kinase 3 (Homo sapiens) (UniProt P27361); settings: Compound concentration 1000.0 nM
[16] = molecular target: Mitogen-activated protein kinase 4 (Homo sapiens) (UniProt P31152); settings: Compound concentration 1000.0 nM
[17] = molecular target: Fibroblast growth factor receptor 1 (Homo sapiens) (UniProt P11362); settings: Compound concentration 1000.0 nM
[18] = system: Fibroblast growth factor receptor 3 (Homo sapiens), P22607 [G697C]; settings: Compound concentration 1000.0 nM
[19] = molecular target: Tyrosine-protein kinase Fyn (Homo sapiens) (UniProt P06241); settings: Compound concentration 1000.0 nM
[20] = molecular target: Homeodomain-interacting protein kinase 3 (Homo sapiens) (UniProt Q9H422); settings: Compound concentration 1000.0 nM
[21] = molecular target: Mitogen-activated protein kinase kinase kinase 15 (Homo sapiens) (UniProt Q6ZN16); settings: Compound concentration 1000.0 nM
[22] = molecular target: Myosin light chain kinase, smooth muscle (Homo sapiens) (UniProt Q15746); settings: Compound concentration 1000.0 nM
[23] = molecular target: Myosin-IIIa (Homo sapiens) (UniProt Q8NEV4); settings: Compound concentration 1000.0 nM
Sequence of Myosin-IIIa (Homo sapiens) (Q8NEV4 whole entry): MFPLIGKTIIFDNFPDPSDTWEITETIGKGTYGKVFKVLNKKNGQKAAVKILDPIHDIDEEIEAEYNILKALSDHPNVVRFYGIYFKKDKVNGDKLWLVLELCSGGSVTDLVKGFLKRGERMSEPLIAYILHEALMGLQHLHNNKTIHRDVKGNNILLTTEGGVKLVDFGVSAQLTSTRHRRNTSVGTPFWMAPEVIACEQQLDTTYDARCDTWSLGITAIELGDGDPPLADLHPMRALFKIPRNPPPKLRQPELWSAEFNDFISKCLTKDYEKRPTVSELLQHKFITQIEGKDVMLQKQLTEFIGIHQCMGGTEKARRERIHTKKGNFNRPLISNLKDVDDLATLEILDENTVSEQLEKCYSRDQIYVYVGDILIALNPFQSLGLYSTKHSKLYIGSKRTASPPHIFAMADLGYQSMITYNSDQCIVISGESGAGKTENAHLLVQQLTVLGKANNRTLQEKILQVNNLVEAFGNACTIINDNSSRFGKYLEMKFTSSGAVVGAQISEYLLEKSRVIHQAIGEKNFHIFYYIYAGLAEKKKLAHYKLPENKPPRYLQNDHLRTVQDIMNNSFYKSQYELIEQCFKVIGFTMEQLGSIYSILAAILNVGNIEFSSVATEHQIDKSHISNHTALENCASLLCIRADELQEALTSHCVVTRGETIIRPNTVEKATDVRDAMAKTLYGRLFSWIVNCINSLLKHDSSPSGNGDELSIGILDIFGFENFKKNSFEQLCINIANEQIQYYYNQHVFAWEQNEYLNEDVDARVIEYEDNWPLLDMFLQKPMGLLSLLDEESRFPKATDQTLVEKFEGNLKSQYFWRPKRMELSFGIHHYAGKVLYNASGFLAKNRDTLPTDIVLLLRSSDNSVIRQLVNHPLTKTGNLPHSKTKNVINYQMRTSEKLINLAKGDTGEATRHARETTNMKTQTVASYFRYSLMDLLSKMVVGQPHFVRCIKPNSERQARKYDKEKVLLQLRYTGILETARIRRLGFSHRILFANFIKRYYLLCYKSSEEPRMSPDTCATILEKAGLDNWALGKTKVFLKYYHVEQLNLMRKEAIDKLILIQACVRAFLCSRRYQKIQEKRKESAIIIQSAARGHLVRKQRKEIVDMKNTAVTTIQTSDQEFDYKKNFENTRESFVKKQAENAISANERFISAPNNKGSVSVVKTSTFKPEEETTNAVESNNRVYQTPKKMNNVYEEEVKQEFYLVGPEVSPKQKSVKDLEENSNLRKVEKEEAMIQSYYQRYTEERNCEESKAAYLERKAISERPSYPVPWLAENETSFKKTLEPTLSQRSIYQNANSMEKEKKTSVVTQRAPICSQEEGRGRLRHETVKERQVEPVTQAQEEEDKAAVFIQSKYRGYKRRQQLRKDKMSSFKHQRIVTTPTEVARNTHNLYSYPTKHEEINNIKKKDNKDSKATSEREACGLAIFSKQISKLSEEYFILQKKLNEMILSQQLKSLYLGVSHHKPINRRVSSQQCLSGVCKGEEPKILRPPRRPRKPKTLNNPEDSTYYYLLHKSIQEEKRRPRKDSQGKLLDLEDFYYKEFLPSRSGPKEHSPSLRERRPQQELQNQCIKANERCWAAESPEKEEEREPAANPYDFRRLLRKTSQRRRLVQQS

[24] = molecular target: Myosin-IIIb (Homo sapiens) (UniProt Q8WXR4); settings: Compound concentration 1000.0 nM
[25] = molecular target: Cyclin-dependent kinase 18 (Homo sapiens) (UniProt Q07002); settings: Compound concentration 1000.0 nM
[26] = molecular target: Cyclin-dependent kinase 15 (Homo sapiens) (UniProt Q96Q40); settings: Compound concentration 1000.0 nM
Sequence of Cyclin-dependent kinase 15 (Homo sapiens) (Q96Q40 whole entry, the tested form may be a part): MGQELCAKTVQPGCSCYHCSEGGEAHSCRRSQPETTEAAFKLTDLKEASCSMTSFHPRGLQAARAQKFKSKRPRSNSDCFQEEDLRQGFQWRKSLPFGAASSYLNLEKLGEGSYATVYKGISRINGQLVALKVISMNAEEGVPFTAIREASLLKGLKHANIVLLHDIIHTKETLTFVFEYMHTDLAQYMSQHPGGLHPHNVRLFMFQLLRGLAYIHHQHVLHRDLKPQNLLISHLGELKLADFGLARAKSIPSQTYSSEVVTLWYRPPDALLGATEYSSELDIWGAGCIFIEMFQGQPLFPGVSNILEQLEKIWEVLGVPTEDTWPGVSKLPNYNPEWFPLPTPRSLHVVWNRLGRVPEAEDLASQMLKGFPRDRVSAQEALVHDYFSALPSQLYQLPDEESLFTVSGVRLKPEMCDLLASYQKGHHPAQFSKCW

[27] = molecular target: Phosphatidylinositol 3-kinase C2 domain-containing subunit gamma (Homo sapiens) (UniProt O75747); settings: Compound concentration 1000.0 nM
[28] = system: Phosphatidylinositol 4,5-bisphosphate 3-kinase catalytic subunit alpha isoform (Homo sapiens), P42336 [H1047L]; settings: Compound concentration 1000.0 nM
[29] = molecular target: Phosphatidylinositol 4-phosphate 5-kinase type-1 alpha (Homo sapiens) (UniProt Q99755); settings: Compound concentration 1000.0 nM
Sequence of Phosphatidylinositol 4-phosphate 5-kinase type-1 alpha (Homo sapiens) (Q99755 whole entry): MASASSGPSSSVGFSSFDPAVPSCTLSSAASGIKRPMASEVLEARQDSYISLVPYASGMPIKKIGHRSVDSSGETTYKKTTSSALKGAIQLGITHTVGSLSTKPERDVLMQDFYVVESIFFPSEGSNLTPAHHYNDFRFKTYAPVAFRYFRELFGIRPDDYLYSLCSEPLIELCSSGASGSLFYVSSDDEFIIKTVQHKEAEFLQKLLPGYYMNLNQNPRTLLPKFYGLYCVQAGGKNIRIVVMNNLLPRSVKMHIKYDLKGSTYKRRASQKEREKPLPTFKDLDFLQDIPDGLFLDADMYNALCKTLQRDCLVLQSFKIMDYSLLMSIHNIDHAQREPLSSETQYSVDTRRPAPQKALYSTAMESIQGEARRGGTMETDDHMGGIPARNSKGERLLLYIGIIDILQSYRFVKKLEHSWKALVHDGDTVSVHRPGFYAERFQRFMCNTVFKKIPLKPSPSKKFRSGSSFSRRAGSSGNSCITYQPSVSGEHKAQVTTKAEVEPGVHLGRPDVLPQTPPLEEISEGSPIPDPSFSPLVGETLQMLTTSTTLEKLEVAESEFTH

[30] = molecular target: Serine/threonine-protein kinase PLK2 (Homo sapiens) (UniProt Q9NYY3); settings: Compound concentration 1000.0 nM
[31] = molecular target: Serine/threonine-protein kinase PLK3 (Homo sapiens) (UniProt Q9H4B4); settings: Compound concentration 1000.0 nM
[32] = molecular target: Serine/threonine-protein kinase PLK4 (Homo sapiens) (UniProt O00444); settings: Compound concentration 1000.0 nM
[33] = molecular target: RAF proto-oncogene serine/threonine-protein kinase (Homo sapiens) (UniProt P04049); settings: Compound concentration 1000.0 nM
[34] = molecular target: Proto-oncogene tyrosine-protein kinase receptor Ret (Homo sapiens) (UniProt P07949); settings: Compound concentration 1000.0 nM
[35] = molecular target: Proto-oncogene tyrosine-protein kinase ROS (Homo sapiens) (UniProt P08922); settings: Compound concentration 1000.0 nM
[36] = molecular target: Ribosomal protein S6 kinase alpha-4 (Homo sapiens) (UniProt O75676); settings: Compound concentration 1000.0 nM
[37] = molecular target: Ribosomal protein S6 kinase alpha-5 (Homo sapiens) (UniProt O75582); settings: Compound concentration 1000.0 nM
[38] = molecular target: Serine/threonine-protein kinase Sgk1 (Homo sapiens) (UniProt O00141); settings: Compound concentration 1000.0 nM
[39] = molecular target: Tyrosine-protein kinase Srms (Homo sapiens) (UniProt Q9H3Y6); settings: Compound concentration 1000.0 nM
[40] = molecular target: Serine/threonine-protein kinase WNK2 (Homo sapiens) (UniProt Q9Y3S1); settings: Compound concentration 1000.0 nM
[41] = molecular target: Serine/threonine-protein kinase 32B (Homo sapiens) (UniProt Q9NY57); settings: Compound concentration 1000.0 nM
[42] = molecular target: 5-hydroxytryptamine receptor 6 (Homo sapiens) (UniProt P50406); settings: Compound concentration 10.0 uM
Sequence of 5-hydroxytryptamine receptor 6 (Homo sapiens) (P50406 whole entry): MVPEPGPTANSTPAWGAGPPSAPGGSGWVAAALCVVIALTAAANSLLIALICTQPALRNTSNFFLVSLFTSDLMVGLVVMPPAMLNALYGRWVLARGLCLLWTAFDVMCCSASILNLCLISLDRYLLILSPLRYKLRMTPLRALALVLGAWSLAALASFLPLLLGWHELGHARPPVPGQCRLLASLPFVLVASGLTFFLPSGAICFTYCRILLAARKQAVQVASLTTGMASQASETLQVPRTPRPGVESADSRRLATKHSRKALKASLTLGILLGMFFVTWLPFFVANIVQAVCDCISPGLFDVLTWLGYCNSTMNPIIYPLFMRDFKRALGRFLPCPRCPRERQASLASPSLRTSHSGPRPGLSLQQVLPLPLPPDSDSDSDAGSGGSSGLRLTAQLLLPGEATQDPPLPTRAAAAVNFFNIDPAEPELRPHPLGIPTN

[43] = molecular target: GABA-A receptor; anion channel (Rattus norvegicus) (UniProt O09028+P15431+P18506+P18508+P19969+P20236+P23574+P23576+P28471+P28473+P30191+P62813+P63079+P63138+Q91ZM7+Q9ES14); settings: Compound concentration 10.0 uM
[44] = molecular target: Sigma non-opioid intracellular receptor 1 (Homo sapiens, UniProt Q99720); settings: Compound concentration 10.0 uM

O=C(Nc1ccc(Oc2ccc(F)cc2)cc1)N1CCc2ncccc2[C@H]1c1ccc(F)cc1 [BAY-897]
residual activity [1]: 94%
residual activity [2]: 98%
residual activity [3]: 100%
residual activity [4]: 92%
residual activity [5]: 95%
residual activity [6]: 100%
residual activity [7]: 95%
residual activity [8]: 100%
residual activity [9]: 87%
residual activity [10]: 87%
residual activity [11]: 100%
residual activity [12]: 95%
residual activity [13]: 100%
residual activity [14]: 100%
residual activity [15]: 87%
residual activity [16]: 95%
residual activity [17]: 100%
residual activity [18]: 100%
residual activity [19]: 89%
residual activity [20]: 92%
residual activity [21]: 100%
residual activity [22]: 100%
residual activity [23]: 100%
residual activity [24]: 83%
residual activity [25]: 98%
residual activity [26]: 86%
residual activity [27]: 100%
residual activity [28]: 85%
residual activity [29]: 95%
residual activity [30]: 100%
residual activity [31]: 87%
residual activity [32]: 94%
residual activity [33]: 100%
residual activity [34]: 94%
residual activity [35]: 76%
residual activity [36]: 94%
residual activity [37]: 74%
residual activity [38]: 95%
residual activity [39]: 94%
residual activity [40]: 88%
residual activity [41]: 72%
inhibition [42]: 16.9%
inhibition [43]: 22.4%
inhibition [44]: 73.4%

O=C(Nc1cnc(Oc2ccc(F)cc2)nc1)N1CCc2ncccc2[C@@H]1c1ccc(F)cc1 [BAY-899]
residual activity [1]: 99%
residual activity [2]: 100%
residual activity [3]: 94%
residual activity [4]: 95%
residual activity [5]: 89%
residual activity [6]: 92%
residual activity [7]: 100%
residual activity [8]: 100%
residual activity [9]: 78%
residual activity [10]: 90%
residual activity [11]: 95%
residual activity [12]: 100%
residual activity [13]: 83%
residual activity [14]: 100%
residual activity [15]: 92%
residual activity [16]: 95%
residual activity [17]: 82%
residual activity [18]: 89%
residual activity [19]: 100%
residual activity [20]: 90%
residual activity [21]: 100%
residual activity [22]: 100%
residual activity [23]: 100%
residual activity [24]: 100%
residual activity [25]: 96%
residual activity [26]: 93%
residual activity [27]: 97%
residual activity [28]: 92%
residual activity [29]: 100%
residual activity [30]: 100%
residual activity [31]: 87%
residual activity [32]: 100%
residual activity [33]: 100%
residual activity [34]: 94%
residual activity [35]: 82%
residual activity [36]: 91%
residual activity [37]: 74%
residual activity [38]: 75%
residual activity [39]: 95%
residual activity [40]: 79%
residual activity [41]: 87%
inhibition [42]: -3.59%
inhibition [43]: 26%
inhibition [44]: 64.4%
